Measurements from PubChem BioAssay AID248 (DTP/NCI, 2004).
“And” between values parts separate entries of the source, which are not always exact repeats. Equal entries are not always repeated. Toxic doses and inconclusive results are not listed. No stated cut-off is given here; in the data, active means T/C of 150% or more; inactive means T/C below 125%. Numbered stars: 1 amine (or outer) side, 2 acyl side, 3 side chain; on linkers, the order of the positions; unused ones are H or OH. Bridge positions count the residues as written; N and C are the ends. Square brackets hold non-standard residues; d marks the D form. Peptide text beside a SMILES is read from it. I, II: the chains in the order shown. Actinocin(1to9) = Cc1c2oc3c(C)ccc(C(=O)[*:2])c3nc-2c(C(=O)[*:1])c(N)c1=O; X5 = O=C1CC(C(=O)[*:2])N([*:1])C1; NMeV = CN[CH](C(=O)O)C(C)C; Sar = CNCC(=O)O

Tested on: L1210 leukemia ip in BDF1 mice, survival T/C
Assay: NCI In Vivo Anticancer Drug Screen. Data for tumor model L1210 Leukemia (intraperitoneal) in B6D2F1 (BDF1) mice
Details: higher = longer survival
Summary of the method: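 Each compound was tested against a transplantable tumor grown in mice. The endpoint was survival, with treated animals benchmarked against vehicle controls as a simple ratio.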

[1] = endpoint: mean survival time, dose: 100.0 mg/kg/injection, schedule: Q01DX001 (ip), vehicle: carboxymethylcellulose (CMC)
[2] = endpoint: mean survival time, dose: 200.0 mg/kg/injection, schedule: Q01DX001 (ip), vehicle: carboxymethylcellulose (CMC)
[3] = endpoint: mean survival time, dose: 400.0 mg/kg/injection, schedule: Q01DX001 (ip), vehicle: carboxymethylcellulose (CMC)
[4] = endpoint: mean survival time, dose: 100.0 mg/kg/injection, schedule: Q01DX009 (ip), vehicle: saline with Tween-80
[5] = endpoint: mean survival time, dose: 100.0 mg/kg/injection, schedule: Q04DX003 (ip), vehicle: saline with Tween-80
[6] = endpoint: mean survival time, dose: 200.0 mg/kg/injection, schedule: Q01DX009 (ip), vehicle: saline with Tween-80
[7] = endpoint: mean survival time, dose: 200.0 mg/kg/injection, schedule: Q04DX003 (ip), vehicle: saline with Tween-80
[8] = endpoint: mean survival time, dose: 400.0 mg/kg/injection, schedule: Q04DX003 (ip), vehicle: saline with Tween-80
[9] = endpoint: mean survival time, dose: 100.0 mg/kg/injection, schedule: Q04DX002 (ip), vehicle: saline with Tween-80
[10] = endpoint: mean survival time, dose: 200.0 mg/kg/injection, schedule: Q04DX002 (ip), vehicle: saline with Tween-80
[11] = endpoint: mean survival time, dose: 400.0 mg/kg/injection, schedule: Q04DX002 (ip), vehicle: saline with Tween-80
[12] = endpoint: mean survival time, dose: 100.0 mg/kg/injection, schedule: Q01DX009 (ip), vehicle: Klucel (hydroxypropylcellulose) (HPC)
[13] = endpoint: mean survival time, dose: 200.0 mg/kg/injection, schedule: Q01DX009 (ip), vehicle: Klucel (hydroxypropylcellulose) (HPC)
[14] = endpoint: mean survival time, dose: 400.0 mg/kg/injection, schedule: Q01DX009 (ip), vehicle: Klucel (hydroxypropylcellulose) (HPC)
[15] = endpoint: mean survival time, dose: 100.0 mg/kg/injection, schedule: Q04DX002 (ip), vehicle: Klucel (hydroxypropylcellulose) (HPC)
[16] = endpoint: mean survival time, dose: 200.0 mg/kg/injection, schedule: Q04DX002 (ip), vehicle: Klucel (hydroxypropylcellulose) (HPC)
[17] = endpoint: mean survival time, dose: 400.0 mg/kg/injection, schedule: Q04DX002 (ip), vehicle: Klucel (hydroxypropylcellulose) (HPC)
[18] = endpoint: mean survival time, dose: 400.0 mg/kg/injection, schedule: Q01DX009 (ip), vehicle: saline with Tween-80

Measured: T/C

CC(CO)(CO)NC(=O)c1ccc([N+](=O)[O-])cc1
inactive: [1] 94 % of control | [2] 100 % of control | [3] 94 % of control

COc1cc(/C=C/C(C)=O)ccc1O
inactive: endpoint: mean survival time, dose: 50.0 mg/kg/injection, schedule: Q01DX009 (ip), vehicle: saline with Tween-80 101 % of control | [4] 101 % of control | [5] 93 % of control | [6] 98 % of control | [7] 98 % of control | [8] 98 % of control

CC(O)CCc1ccc(OC(=O)c2ccccc2)cc1 (stereo unspecified)
inactive: endpoint: mean survival time, dose: 50.0 mg/kg/injection, schedule: Q01DX001 (ip), vehicle: saline 101 % of control | endpoint: mean survival time, dose: 100.0 mg/kg/injection, schedule: Q01DX001 (ip), vehicle: saline 92 % of control | endpoint: mean survival time, dose: 200.0 mg/kg/injection, schedule: Q01DX001 (ip), vehicle: saline 101 % of control | endpoint: mean survival time, dose: 400.0 mg/kg/injection, schedule: Q01DX001 (ip), vehicle: saline 92 % of control

CC(C)(C)O[Si](C)(C)CCl
inactive: [1] 92 % of control | [2] 92 % of control | [3] 92 % of control

Cc1ccc(NC(=S)Nc2ccc(Cc3ccc(NC(=S)Nc4ccc(C)cc4)cc3)cc2)cc1
inactive: [9] 98 % of control | [10] 103 % of control | [11] 88 % of control

Fc1ccc(/C=C2/c3cc(Cl)ccc3-c3c(Cl)cc(Cl)cc32)cc1
inactive: endpoint: mean survival time, dose: 100.0 mg/kg/injection, schedule: Q01DX001 (ip), vehicle: Klucel (hydroxypropylcellulose) (HPC) 96 % of control | [12] 98 % of control | endpoint: mean survival time, dose: 100.0 mg/kg/injection, schedule: Q04DX003 (ip), vehicle: Klucel (hydroxypropylcellulose) (HPC) 98 % of control | endpoint: mean survival time, dose: 200.0 mg/kg/injection, schedule: Q01DX001 (ip), vehicle: Klucel (hydroxypropylcellulose) (HPC) 90 % of control | [13] 104 % of control | endpoint: mean survival time, dose: 200.0 mg/kg/injection, schedule: Q04DX003 (ip), vehicle: Klucel (hydroxypropylcellulose) (HPC) 90 % of control | endpoint: mean survival time, dose: 400.0 mg/kg/injection, schedule: Q01DX001 (ip), vehicle: Klucel (hydroxypropylcellulose) (HPC) 89 % of control | [14] 114 % of control | endpoint: mean survival time, dose: 400.0 mg/kg/injection, schedule: Q04DX003 (ip), vehicle: Klucel (hydroxypropylcellulose) (HPC) 95 % of control

CC(=O)OCc1c[n+]([O-])c(C)c(OC(C)=O)c1COC(C)=O
inactive: endpoint: mean survival time, dose: 25.0 mg/kg/injection, schedule: Q04DX003 (ip), vehicle: saline 101 % of control | endpoint: mean survival time, dose: 50.0 mg/kg/injection, schedule: Q04DX003 (ip), vehicle: saline 101 % of control

Cc1c([N+](=O)[O-])cc(C(C)(C)C)c(OC(=O)Nc2ccccc2)c1[N+](=O)[O-]
inactive: endpoint: mean survival time, dose: 12.5 mg/kg/injection, schedule: Q04DX003 (ip), vehicle: Klucel (hydroxypropylcellulose) (HPC) 93 % of control | endpoint: mean survival time, dose: 25.0 mg/kg/injection, schedule: Q04DX003 (ip), vehicle: Klucel (hydroxypropylcellulose) (HPC) 106 % of control | endpoint: mean survival time, dose: 50.0 mg/kg/injection, schedule: Q04DX003 (ip), vehicle: Klucel (hydroxypropylcellulose) (HPC) 95 % of control

C1=Cc2ccccc2C(c2ccccc2)S1 (stereo unspecified)
inactive: endpoint: mean survival time, dose: 100.0 mg/kg/injection, schedule: Q04DX002 (ip), vehicle: saline 103 % of control | endpoint: mean survival time, dose: 200.0 mg/kg/injection, schedule: Q04DX002 (ip), vehicle: saline 98 % of control | endpoint: mean survival time, dose: 400.0 mg/kg/injection, schedule: Q04DX002 (ip), vehicle: saline 103 % of control

Cc1c2oc3c(C)ccc(C(=O)NC4C(=O)NC(C(C)C)C(=O)N5CCCC5C(=O)N(C)CC(=O)N(C)C(C(C)C)C(=O)OC4C)c3nc-2c(C(=O)NC2C(=O)NC(C(C)C)C(=O)N3CC(=O)CC3C(=O)N(C)CC(=O)N(C)C(C(C)C)C(=O)OC2C)c(N)c1=O (stereo unspecified) (I: TV[X5][Sar][NMeV] / II: TVP[Sar][NMeV]; ester I:1-I:C, II:1-II:C; linker I:N-II:N via Actinocin(1to9); configuration not given here)
inactive: endpoint: median survival time, dose: 3.1 micrograms/kg/injection, schedule: Q01DX009 (ip), vehicle: water 108 % of control | endpoint: median survival time, dose: 6.2 micrograms/kg/injection, schedule: Q01DX009 (ip), vehicle: water 120 % of control | endpoint: median survival time, dose: 12.5 micrograms/kg/injection, schedule: Q01DX009 (ip), vehicle: water 116 % of control | endpoint: median survival time, dose: 18.7 micrograms/kg/injection, schedule: Q04DX003 (ip), vehicle: water 108 % of control | endpoint: median survival time, dose: 25.0 micrograms/kg/injection, schedule: Q01DX009 (ip), vehicle: water 108 % of control | endpoint: median survival time, dose: 37.5 micrograms/kg/injection, schedule: Q04DX003 (ip), vehicle: water 113 % of control

COc1ccc(C2Nc3cc(Cl)ccc3NC3=C2C(=O)CC(C)(C)C3)cc1 (stereo unspecified)
inactive: [15] 105 % of control | [16] 94 % of control | [17] 102 % of control

CCN(CC)CCN1C(=O)CN=C(c2ccc[nH]2)c2cc(Cl)ccc21
inactive: [4] 121 % of control | [5] 100 % of control | [6] 106 % of control | [7] 94 % of control | [18] 117 % of control | [8] 96 % of control

O=C(O)c1ccc(CNc2ccc(C(=O)CCl)cc2)cc1
inactive: [1] 102 % of control | [2] 102 % of control | [3] 118 % of control

Cc1c(NC(=O)Nc2cc(C(F)(F)F)ccc2Cl)c(=O)n(-c2ccccc2)n1C
inactive: [15] 96 % of control | [16] 96 % of control | [17] 105 % of control

Cc1cccc(C)c1OC(=O)Nc1cccc(Cl)c1
inactive: [15] 114 % of control | [16] 105 % of control | [17] 105 % of control

CN(C)C(=O)Nc1ccc(Cl)c(Cl)c1
inactive: endpoint: mean survival time, dose: 100.0 mg/kg/injection, schedule: Q01DX009 (ip), vehicle: saline 94 % of control | endpoint: mean survival time, dose: 100.0 mg/kg/injection, schedule: Q04DX003 (ip), vehicle: saline 103 % of control | endpoint: mean survival time, dose: 200.0 mg/kg/injection, schedule: Q01DX009 (ip), vehicle: saline 102 % of control | endpoint: mean survival time, dose: 200.0 mg/kg/injection, schedule: Q04DX003 (ip), vehicle: saline 102 % of control | endpoint: mean survival time, dose: 400.0 mg/kg/injection, schedule: Q01DX009 (ip), vehicle: saline 93 % of control | endpoint: mean survival time, dose: 400.0 mg/kg/injection, schedule: Q04DX003 (ip), vehicle: saline 96 % of control

CC(=O)N1C(=O)C2(Nc3ccccc3N2)c2ccccc21
inactive: [1] 87 % of control | [2] 87 % of control | [3] 96 % of control

CCOC(=O)C(C(=O)OCC)C(=O)c1cccc2ccc3ccccc3c12
inactive: [5] 96 % of control | [7] 96 % of control | [8] 97 % of control

CC(=O)Nc1ccc(/C=N/NC(=O)COCC(=O)N/N=C/c2ccc(NC(C)=O)cc2)cc1
inactive: [12] 91 % of control | [13] 94 % of control | [14] 96 % of control

O=C(/C=C(\c1ccccc1)C1C2C=CC(C2)C1c1ccccc1)c1ccccc1 (stereo unspecified)
inactive: endpoint: mean survival time, dose: 100.0 mg/kg/injection, schedule: Q01DX001 (ip), vehicle: saline with Tween-80 97 % of control | endpoint: mean survival time, dose: 200.0 mg/kg/injection, schedule: Q01DX001 (ip), vehicle: saline with Tween-80 95 % of control | endpoint: mean survival time, dose: 400.0 mg/kg/injection, schedule: Q01DX001 (ip), vehicle: saline with Tween-80 96 % of control

O=C(CN(Cc1ccccc1)Cc1ccccc1)c1ccccc1
inactive: endpoint: mean survival time, dose: 100.0 mg/kg/injection, schedule: Q04DX003 (ip), vehicle: DMSO 103 % of control

Cc1ccc(-n2c(O)c(N=Nc3ccccc3C)c(=O)n(-c3ccc(Br)cc3)c2=S)cc1
inactive: endpoint: mean survival time, dose: 37.5 mg/kg/injection, schedule: Q01DX001 (ip), vehicle: Klucel (hydroxypropylcellulose) (HPC) 96 % of control | endpoint: mean survival time, dose: 75.0 mg/kg/injection, schedule: Q01DX001 (ip), vehicle: Klucel (hydroxypropylcellulose) (HPC) 101 % of control | endpoint: mean survival time, dose: 150.0 mg/kg/injection, schedule: Q01DX001 (ip), vehicle: Klucel (hydroxypropylcellulose) (HPC) 110 % of control

O=C1OCOC1C1OCOC1=O (stereo unspecified)
inactive: endpoint: mean survival time, dose: 55.0 mg/kg/injection, schedule: Q01DX Z (ip), vehicle: methylcellulose (MC) 119 % of control | endpoint: mean survival time, dose: 83.0 mg/kg/injection, schedule: Q01DX Z (ip), vehicle: methylcellulose (MC) 104 % of control | endpoint: mean survival time, dose: 125.0 mg/kg/injection, schedule: Q01DX Z (ip), vehicle: methylcellulose (MC) 111 % of control

Cc1cc2ccccc2c(N)c1C#N
inactive: [4] 102 % of control and 106 % of control | [9] 93 % of control and 100 % of control | [6] 92 % of control and 90 % of control | [10] 91 % of control | [18] 95 % of control | [11] 100 % of control and 88 % of control
